pIC50: −log10 of the molar value.
Tests used:
[1] = tested on: lung adenocarcinoma A549 cells; experiment: MTT antiproliferative assay, A549; format: cell-based, human; settings: Homo sapiens, A549; MTT assay, 24 h exposure, triplicate; read-out: IC50 A549
Experimental: (§1) The SGC-7901, A549 and HT-1080 cell lines were purchased from the American Type Culture Collection (ATCC, Manassas, VA, USA). […] Briefly, approximately 3 × 10^4 cells were seeded in a 96-well plate. After 24 h of incubation at 37 °C, cells were exposed to compounds of differing concentrations for 24 h. After treatment, cells were washed with 1X PBS followed by addition of 100 µL of 0.05% MTT reagent to each well, followed by incubation for 4 h at 37 °C. After incubation, the supernatant from each well was carefully removed and the formazan crystals were dissolved in 100 µL of DMSO. The colour density was measured spectrophotometrically at 490 nm using a microplate reader (SpectraMax Plus384, Molecular Devices Corp., USA). The data were calculated and plotted as percent viability compared to control.
as §1

[2] = tested on: gastric adenocarcinoma SGC-7901 cells; experiment: MTT antiproliferative assay, SGC-7901; format: cell-based, human; settings: Homo sapiens, SGC-7901; MTT assay, 24 h exposure, triplicate; read-out: IC50 SGC-7901
Experimental: as §1, §1

[3] = tested on: fibrosarcoma HT-1080 cells; experiment: MTT antiproliferative assay, HT-1080; format: cell-based, human; settings: Homo sapiens, HT-1080; MTT assay, 24 h exposure, triplicate; read-out: IC50 HT-1080
Experimental: as §1, §1

| Structure (SMILES) | pIC50 [1] | melting point [°C] | pIC50 [2] | pIC50 [3] |
| --- | --- | --- | --- | --- |
| COc1ccc(-c2nnc3n2N=C(c2ccc(F)cc2)CS3)c(OC)c1OC [Compound 4a, 3-(2,3,4-Trimethoxyphenyl)-6-(4-fluorophenyl)-7H-[1,2,4]triazolo[3,4-b][1,3,4]thiadiazine] | 4.67 | 92 to 94 | 4.49 | 4.50 |
| COc1ccc(-c2nnc3n2N=C(c2ccc(Cl)cc2)CS3)c(OC)c1OC [Compound 4b, 3-(2,3,4-Trimethoxyphenyl)-6-(4-chlorophenyl)-7H-[1,2,4]triazolo[3,4-b][1,3,4]thiadiazine] | 4.63 | 88 to 90 | 4.61 | 4.61 |
| COc1ccc(-c2nnc3n2N=C(c2ccc(Br)cc2)CS3)c(OC)c1OC [Compound 4c, 3-(2,3,4-Trimethoxyphenyl)-6-(4-bromophenyl)-7H-[1,2,4]triazolo[3,4-b][1,3,4]thiadiazines] | 5.13 | 96 to 98 | 5.26 | 5.42 |
| COc1ccc(-c2nnc3n2N=C(c2ccc(C(F)(F)F)cc2)CS3)c(OC)c1OC [Compound 4e, 3-(2,3,4-Trimethoxyphenyl)-6-(4-(trifluoromethyl)phenyl)-7H-[1,2,4]triazolo[3,4-b][1,3,4]thiadiazine] | 4.07 | 95 to 96 | 5.62 | 4.98 |
| COc1ccc(C2=Nn3c(nnc3-c3ccc(OC)c(OC)c3OC)SC2)cc1 [Compound 4f, 3-(2,3,4-Trimethoxyphenyl)-6-(4-methoxyphenyl)-7H-[1,2,4]triazolo[3,4-b][1,3,4]thiadiazine] | 4.30 | 92 to 95 | 4.20 | 4.21 |
| COc1ccc(-c2nnc3n2N=C(c2ccc(SC)cc2)CS3)c(OC)c1OC [Compound 4g, 3-(2,3,4-Trimethoxyphenyl)-6-(4-methylthiophenyl)-7H-[1,2,4]triazolo[3,4-b][1,3,4]thiadiazine] | 4.90 | 86 to 88 | 5.10 | 5.57 |
| COc1ccc(C2=Nn3c(nnc3-c3ccc(OC)c(OC)c3OC)SC2)cc1F [Compound 4h, 3-(2,3,4-Trimethoxyphenyl)-6-(3-fluoro-4-methoxyphenyl)-7H-[1,2,4]triazolo[3,4-b][1,3,4]thiadiazine] | 4.79 | 92 to 94 | 4.36 | 4.28 |
| COc1ccc(C2=Nn3c(nnc3-c3ccc(OC)c(OC)c3OC)SC2)cc1[N+](=O)[O-] [Compound 4i, 3-(2,3,4-Trimethoxyphenyl)-6-(3-nitro-4-methoxyphenyl)-7H-[1,2,4]triazolo[3,4-b][1,3,4]thiadiazine] | 4.78 | 134 to 136 | 4.88 | 4.80 |
| COc1ccc(C2=Nn3c(nnc3-c3ccc(OC)c(OC)c3OC)SC2)cc1OCc1ccccc1 [Compound 4k, 3-(2,3,4-Trimethoxyphenyl)-6-(3-benzyloxy-4-methoxyphenyl)-7H-[1,2,4]triazolo[3,4-b][1,3,4]thiadiazine] | 5.05 | 85 to 86 | 4.54 | 4.55 |

Further lines, results first:

| pIC50 [1] | melting point [°C] | pIC50 [2] | pIC50 [3] | Structure (SMILES) |
| --- | --- | --- | --- | --- |
| 4.11 | 95 to 97 | 4.14 | 4.09 | COc1ccc(-c2nnc3n2N=C(c2ccc(F)c(F)c2)CS3)c(OC)c1OC [Compound 4m, 3-(2,3,4-Trimethoxyphenyl)-6-(3,4-difluorophenyl)-7H-[1,2,4]triazolo[3,4-b][1,3,4]thiadiazine] |
| 6.57 | 125 to 127 | 5.86 | 6.06 | COc1cc(-c2nnc3n2N=C(c2ccc(Cl)cc2)CS3)cc(OC)c1OC [Compound 5a, 3-(3,4,5-Trimethoxyphenyl)-6-(4-chlorophenyl)-7H-[1,2,4]triazolo[3,4-b][1,3,4]thiadiazine] |
| 5.11 | 105 to 106 | 5.93 | 6.12 | COc1cc(-c2nnc3n2N=C(c2ccc(C(F)(F)F)cc2)CS3)cc(OC)c1OC [Compound 5c, 3-(3,4,5-Trimethoxyphenyl)-6-(4-(trifluoromethyl)phenyl)-7H-[1,2,4]triazolo[3,4-b][1,3,4]thiadiazine] |
| 6.34 | 92 to 94 | 6.89 | 6.74 | COc1cc(-c2nnc3n2N=C(c2ccc(SC)cc2)CS3)cc(OC)c1OC [Compound 5d, 3-(3,4,5-Trimethoxyphenyl)-6-(4-methylthiophenyl)-7H-[1,2,4]triazolo[3,4-b][1,3,4]thiadiazine] |
| 5.49 | 115 to 118 | 5.37 | 5.88 | COc1ccc(C2=Nn3c(nnc3-c3cc(OC)c(OC)c(OC)c3)SC2)cc1F [Compound 5e, 3-(3,4,5-Trimethoxyphenyl)-6-(3-fluoro-4-methoxyphenyl)-7H-[1,2,4]triazolo[3,4-b][1,3,4]thiadiazine] |
| 5.05 | 212 to 213 | 4.95 | 5.24 | COc1ccc(C2=Nn3c(nnc3-c3cc(OC)c(OC)c(OC)c3)SC2)cc1[N+](=O)[O-] [Compound 5f, 3-(3,4,5-Trimethoxyphenyl)-6-(3-nitro-4-methoxyphenyl)-7H-[1,2,4]triazolo[3,4-b][1,3,4]thiadiazine] |
| 5.97 | 112 to 115 | 5.90 | 6.74 | COc1ccc(C2=Nn3c(nnc3-c3cc(OC)c(OC)c(OC)c3)SC2)cc1N [Compound 5g, 3-(3,4,5-Trimethoxyphenyl)-6-(3-amino-4-methoxyphenyl)-7H-[1,2,4]triazolo[3,4-b][1,3,4]thiadiazine] |
| 5.53 | 93 to 94 | 5.78 | 5.80 | COc1ccc(C2=Nn3c(nnc3-c3cc(OC)c(OC)c(OC)c3)SC2)cc1OCc1ccccc1 [Compound 5h, 3-(3,4,5-Trimethoxyphenyl)-6-(3-benzyloxy-4-methoxyphenyl)-7H-[1,2,4]triazolo[3,4-b][1,3,4]thiadiazine] |
| 6.72 | 93 to 95 | 7.19 | 6.89 | COc1ccc(C2=Nn3c(nnc3-c3ccc4c(c3)OCO4)SC2)cc1F [Compound 6a, 3-(3,4-Methylenedioxyphenyl)-6-(3-fluoro-4-methoxyphenyl)-7H-[1,2,4]triazolo[3,4-b][1,3,4]thiadiazine] |
| 4.80 | 90 to 92 | 4.98 | 7.10 | COc1ccc(C2=Nn3c(nnc3-c3ccc4c(c3)OCO4)SC2)cc1[N+](=O)[O-] [Compound 6b, 3-(3,4-Methylenedioxyphenyl)-6-(3-nitro-4-methoxyphenyl)-7H-[1,2,4]triazolo[3,4-b][1,3,4]thiadiazine] |
| 4.79 | 86 to 88 | 5.07 | 5.14 | COc1ccc(C2=Nn3c(nnc3-c3ccc4c(c3)OCO4)SC2)cc1OCc1ccccc1 [Compound 6d, 3-(3,4-Methylenedioxyphenyl)-6-(3-benzyloxy-4-methoxyphenyl)-7H-[1,2,4]triazolo[3,4-b][1,3,4]thiadiazine] |

Source: publication PMC5607265, “Design, synthesis and structure-activity relationship of 3,6-diaryl-7H-[1,2,4]triazolo[3,4-b][1,3,4]thiadiazines as novel tubulin inhibitors” (Scientific Reports, 2017)
